One test concerns CREB. Description: CREB phosphorylation, Western blot with anti-phospho-CREB antibody. In kind it is cell-based, human. To be noted: near-senescent fibroblasts; 30 μg/ml LPA. The method, then: FIG. 10 represents LPA-dependent PKA activity and CREB phosphorylation in presenescent and near-senescent fibroblasts. Subconfluent presenescent (passage 8, Pa 8) and near-senescent (passage 24, Pa 24) fibroblasts were serum-starved for 2 days and treated with 30 μg/ml LPA for the indicated times. The PKA activity (A) was determined in cell homogenates with kemptide and [γ^32P]ATP as substrates. The radioactivity incorporated into kemptide was measured by a beta-counter and the enzyme activity was calculated as pmol/min/mg protein. The data represents an average of triplicate experiments. The level of phospho-CREB (B) was measured by Western blot analysis using an anti-phospho-CREB antibody.
The expression levels of signaling proteins were examined by Western blot analysis, as described previously (Yeo et al., 2000a). […] The protein concentrations of the lysates were determined using a BCA protein assay kit, as described by the protocol supplied by the manufacturer. […] To examine the level of phospholipase D 1/2, the immunoprecipitated protein obtained using 10 μl of anti-phospholipase D 1 anti-sera (Box45, ESTP4) was analyzed by Western blot against polyclonal anti-phospholipase D 1 antibodies (1:20 dilution of NC STP4 anti-serum).
For orientation: A western blot detects proteins with antibodies after separation by electrophoresis.

Test [1] concerns human diploid fibroblasts. Description: growth factor-stimulated signaling events in human diploid fibroblasts. In kind it is cell-based. On the procedure: Foreskin fibroblasts were isolated as described by Boyce and Ham (1983). Cells were cultured in Dulbecco's modified Eagle's medium containing 10% fetal bovine serum and antibiotics. The primary culture contained smaller and more closely packed cells during the early stage of the culture. Cells with less than 10 passage were often considered as presenescent cells. As the cells were passaged, they became larger and they have a slower growth rate at passage 10-20. Cells from over 27 passages were completely growth-arrested and developed characteristic appearance designated previously as replicative senescence (Yeo et al., 2000a and b). In order to confirm that cells were senescent, we either examined the activity of beta-galactosidase or stained with X-gal, a membrane permeable substrate of the enzyme, which produces a blue insoluble product inside of the cells. The number of cells stained with X-gal increased with age and most of cells from passage 27-28 were stained. Cultures of over 23-28 passages have also shown the cessation of cell growth and senescence-like morphological changes, but only 70-80% of cells were stained with X-gal. These were termed “near-senescent”. Although the near-senescent cultures were not completely homogeneous, we compared the changes in these cultures to those in presenescent cultures of passage 6-10. In order to determine the growth factor-stimulated signaling events, cells were grown for 1-2 days to 60-70% sub-confluency in the culture medium, and then serum-starved to become quiescent by incubating with serum free medium (SFM) for 2 days. The quiescent cells were treated with various agonists, as described in the figure legends. To label cells, radioactive chemicals were added during the incubation with SFM.
Primary human diploid fibroblasts, isolated from newborn foreskins, were used to study the mechanism of reduced response to growth factor stimulation with aging. These cells were maintained and passaged as described previously (Yeo et al., 2000a). […] Compared to their presenescent counterparts, the senescent and near-senescent cells were larger and grew to lower density, as has been observed in other cell systems. Here the present inventors report upon the differential changes in the signaling events evoked by platelet-derived growth factor (PDGF) and lysophosphatidic acid (LPA). PDGF elicits signaling events over a concentration range of 10-100 ng/ml, whereas LPA stimulates the hydrolysis of phospholipids, Ca^2+ mobilization, and actin polymerization over a concentration range of 0.1-10 μg/ml in human diploid fibroblasts. In order to compare their cellular responses, we treated presenescent and senescent (or near-senescent) cells with PDGF and LPA at a maximally responsive dose of 50 ng/ml and 1 μg/ml, respectively.

The subject of another test is Phospholipase C (PLC). To be noted: near-senescent cells (passage 23) vs presenescent (passage 6); PDGF 50 ng/ml, LPA 1 μg/ml, 20 min, 20 mM LiCl.
The test system of test [2] is phosphodiesterases (PDEs). Kind of test: measurement of phosphodiesterase activity in LPA-treated cells. The test is classed as cell-based, human. To be noted: 30 μg/ml LPA. The method, then: Subconfluent presenescent (passage 8, Pa 8) and near-senescent (passage 24, Pa 24) fibroblasts were serum-starved for 2 days and treated with 30 μg/ml LPA for the indicated times. The activities of adenylyl cyclase (A) and phosphodiesterase (B) were determined in the fresh membranes and total cell lysates as described in Materials and Methods. The enzyme activities were calculated as pmol/μg/min. The data represents an average of triplicate experiments.
Phosphodiesterase (PDE) assays were performed as described previously (Jang and Juhnn, 2001). 15 μg of cytosolic proteins were incubated in 200 μl of reaction mixture containing 50 mM Tris-HCl, pH 7.4, 3 mM MgCl2, 60 pmol cAMP, 1 mM 5′-AMP for 15 min at 37° C. After the reaction was stopped by adding 2.0 M perchloric acid, the amount of remaining cAMP was determined by cAMP binding assay.

In the next test the test system is phospholipase D (PLD). Kind of test: phosphatidylbutanol formation as an indication of phospholipase D activity. In kind it is cell-based, human. To be noted: passage 24 near-senescent cells vs presenescent; 0.5% 1-butanol, 20 min. On the procedure:
Subconfluent presenescent (passage 8: Pa 8) and near-senescent (passage 24: Pa 24) cells were serum-starved and labeled with [^3H]myristic acid overnight. […] A representative experiment of three performed in duplicate is presented.
Quiescent cells were labeled overnight with [^3H]myristic acid (1 μCi/ml) and then washed with PBS. Phosphatidylbutanol formation was measured as described by Yeo et al. (1994). Cells were preincubated with 0.5% (v/v) 1-butanol for 15 min and then treated with agonists for 20 min in the presence of 0.5% 1-butanol. Total lipids were extracted and separated by thin layer chromatography. The band of phosphatidylbutanol was scraped off the plates and its radioactivity was counted in a liquid scintillation cocktail.

In the case of lysophosphatidic acid [LPA], the CREB phosphorylation entry in the test with CREB is given as “correlated well with cAMP accumulation”. In addition, in test [1] (human diploid fibroblasts), the “concentration range stimulating hydrolysis of phospholipids, Ca2+ mobilization and actin polymerization” value fell in the range of 0.1 to 10 µg/mL. In test [1] (presenescent and senescent (or near-senescent) cells), this substance gave a maximally responsive dose of 1 µg/mL. Moreover, the “agonist-stimulated inositol phosphates (IPs) production” value with Phospholipase C (PLC) is recorded as “enhanced”. Also, the PDE activity result in test [2] (near-senescent cells) is recorded as “reduced”; in test [2] (presenescent cells), “increased”. In addition, the “reduction of PLD activity” value in the test on phospholipase D (PLD) is recorded as “ca. 20%”.
